According to patent US8026217B2, “Compositions and methods for treating neural anoxia and spreading depression” (Florida Atlantic University, priority 2007, dated 2011):
Entries after “also recorded” stand apart in the source; their conditions may differ. Read-outs that look alike come from different tables or passages of the source.

How the values were obtained:
[1] = system: mammals (mouse or rat); assay: Spreading depression in mammals; type: in vivo; conditions: expected
Text: The pharmacological effects of a PDE5 inhibitor, 8-bromo-GMP, KT5823, and Cantharidin during spreading depression are examined in mammals (mouse or rat).

[2] = system: adult Drosophila melanogaster; type: in vivo; conditions: sitter adults, volatilized from DMSO 1 hr, 1 mM KT5823, 1 mM Cantharidin, 200 mM DCA, 10 mM 8-Bromo cGMP, 10 mM T-0156, versus DMSO sham
Procedure: FIG. 9 is a diagram illustrating in vivo treatment of adult Drosophila melanogaster with pharmacological agents. […] Adult sitters were exposed to various drugs known to target components of the PKG pathway (FIG. 8A). These drugs included: 10 mM T0156, a cGMP-specific phosphodiesterase-5 inhibitor, 10 mM 8-Bromo-cGMP, a PKG activator, 1 mM KT5823, a PKG inhibitor, 1 mM Cantharidin, a PP2A inhibitor, and 200 mM DCA, a K^+ channel activator. All drugs were solubilized in dimethyl sulfoxide (DMSO), where flies treated with only DMSO were used as sham controls. […] 10 μL of drug solution was applied to a crushed Kim wipe at the bottom of each 10 mL test vial. An additional Kim wipe was crushed over top of this to prevent direct contact between the fly and solution. 10 flies were then placed in the vial which was capped with a semi-permeable buzz-stopper, covered with a cut-out finger of a large latex glove to prevent chemical vapours from escaping, and incubated in the dark. The flies were subjected to the drug for 1 hr prior to each behavioural assay. In the drug combination experiments, 20 uL of DMSO was used as a control sham, and combinations of two pharmacological treatments were added as two separate 10 uL aliquots.
Whether or not fly PKG levels could be manipulated in vivo using a technique that uses volatilization of pharmacological agents was next examined. The role of these targets in vivo using sitter flies was examined by depositing pharmacological agents dissolved in DMSO on a cellulose tissue, and allowing them to volatize over minutes in an air tight vial at room temperature (FIG. 9). Adults were exposed to the volatilized compound for one hour in the dark and then assayed for locomotory resilience to acute hypoxia. Control sham animals (FIG. 7A) were treated with only DMSO. Compounds were chosen to target different components of the cGMP pathway (FIG. 8A) in tracheal smooth muscle and Chinese hamster ovary cells, where cGMP activates PKG, thereby activating PP2A, which then de-phosphorylates K^+ channels. The hypothesis that inhibition of this pathway would result in an increase in whole cell K^+ channel conductance, thereby leading to increased resilience to anoxic coma onset, was tested.
Locomotory Tolerance Assay during Acute Hypoxia: Ten flies (separated into males or females) from each of the three strains (rover [for^R], sitter [for^S] and for^s2) were selected and placed in three separate vials with food at least 24 hours before each experiment. At the time of the experiment, flies were emptied into 10 mL empty test vials covered with permeable sponge caps of equivalent thickness, allowing for consistent gas exchange. These test vials were then placed into a 600 mL beaker which was covered with parafilm, creating a closed chamber with an escape hole (1 cm diameter). The parafilm top was punctured with a needle connected to a gas tank (by a plastic hose), through which the inert gas argon was expelled. […] The needle tip was fastened to the bottom of the beaker and inserted into a larger sponge of similar texture to the vial sponge caps to ensure that gas expelled from the needle was dispersed equally throughout the beaker. Also, to ensure that all test vial positions in the beaker received equal gas flow, test vial positions were alternated every trial to reduce variability.
The experiment required exposing the test vials with 10 flies in the container to pure argon gas expelled from the tank at a flow rate of 600 cc/min+/−5%. Time of behavioural failure was recorded by observing the fly undergo a seizure, which was quickly followed by an anoxic coma.

[3] = system: zebrafish; assay: Zebrafish behaviour during acute anoxia; type: in vivo; conditions: whole zebrafish in anoxic water post-treatment; expected
Text: Vertebrate (zebrafish) behaviour is examined during acute anoxia. Whole zebrafish are exposed to anoxic water post-treatment with a PDE5 inhibitor, 8-bromo-GMP, KT5823, and Cantharidin. The time until the animal knocks out during anoxia is monitored.

[4] = system: respiratory brain slices; assay: Neural function in respiratory brain slices during sodium azide-induced anoxia; set-up: species or system mouse or rat; conditions: expected
Text: Neural function in mammals (mouse or rat) is examined pharmacologically during acute anoxia in respiratory brain slices via sodium azide, which chemically induces anoxia. Following administration of the sodium azide, the time until neural failure is monitored. This is done in the presence of a PDE5 inhibitor, 8-bromo-GMP, KT5823, and Cantharidin.

[5] = system: PKG; assay: PKG enzyme activity assay on heads of treated flies; type: biochemical, Drosophila melanogaster; conditions: heads of sitter flies treated in vivo with volatilized agent; versus sham control
Procedure: PKG enzyme activity assays: PKG enzyme activity assays were conducted according to the procedure outlined in Kaun et al. (J Exp Biol. 210(Pt 20):3547-3558, 2007). Adult Drosophila were decapitated and the heads were homogenized in 25 mM 1-1 Tris (pH 7.4), 1 mM 1-1 EDTA, 2 mM 1-1 EGTA, 5 mM 1-1 β-mercaptoethanol, 0.05% Triton X-100 and protease inhibitor solution (Roche Diagnostics). Following microcentrifugation for 5 min, the supernatant was removed and those supernatants containing equal amounts of total protein were examined for PKG enzyme activity. The reaction mixture contained the following substances: 40 mM 1-1 Tris-HCl (pH 7.4), 20 mM 1-1 magnesium acetate, 0.2 mM 1-1 [γ^32P]ATP (500-1000 c.p.m. pmol−1), […] heptapeptide (RKRSRAE), (SEQ ID NO:6), (3 mM 1-1 cGMP and a highly specific inhibitor of cAMP-dependent protein kinase. The next step of the procedure involved incubating the reaction mixtures at a temperature of 30° C. for 10 min, followed by ending the reaction by spotting 70 μl of the reaction mixture onto Whatman P-81 filters. To remove any unreacted [γ^32P]ATP, these spots were then soaked with 75 mM 1-1 H3PO4 for 5 min and washed three times with 75 mM 1-1 H3PO4. Before quantifying enzyme activity, filters were rinsed with 100% ethanol and air dried. To calculate PKG enzyme activity, counts were taken in a Wallac 1409 Liquid Scintillation Counter using universal scintillation cocktail (ICN). PKG activity was presented in the figures as pmol of ^32P incorporated into the substrate min−1 mg−1 protein.

[6] = system: NO-producing cells; assay: DAF2-DA staining of NO-producing cells in locust metathoracic ganglion; type: cell-based, Locusta migratoria; conditions: 100 μM; 3 minutes at 35° C.
Procedure: The pattern of cell staining was similar to that of NOS staining in Schistocerca gregaria and L. migratoria (Müller and Bicker, The Journal of Neuroscience 14:7521-7528, 1994; Bullerjahn and Pflüger, Zoology 106:3-17, 2003). The scale in the Figure is 500 μm. FIGS. 4B and 4C show fluorescing cell bodies at room temperature (20° C.) (4B) and immediately following exposure to heat (35° C.) (4C) (scale for both Figures is 50 μm). The change in fluorescence following exposure to heat was quantified as shown in FIG. 4D (3 minutes at 35° C., shown by bar above x-axis). The difference between cell body fluorescence and background more than doubled immediately following exposure to heat (t=5 minutes). […] Fluorescence was measured from the brightest 3 cells from each ganglion. [Sample sizes: Control, n=7; LNAME, n=4; and No heat, n=3. Asterisks indicate significant differences of control from LNAME and No heat groups (Tukey, p<0.05).]

[7] = system: metathoracic ganglion of the locust; assay: SD-like events evoked by high-potassium (KCl 150 mM) injection into the locust metathoracic ganglion; type: in vivo, Locusta migratoria; conditions: for time to recover ventilatory central pattern generator (vCPG) function following SD: Example 5, NO synthase inhibitor and NO donors, FIG. 4G
Text: CSD is increasingly accepted as a primary causative agent for migraine, particularly migraine with aura. The cellular mechanisms underlying stroke, seizures and migraine are not exclusive to mammals. Using the locust (Locusta migratoria), a proven model for examining the effects of heat stress on CNS activity, a rapid rise in extracellular potassium ([K^+]o) during anoxia/hypoxia, extreme heat, and ouabain exposure was monitored. This phenomenon has all the characteristics of SD in the neocortex of mammals. Since the physiological mechanisms observed in locust SD-like events are similar to that of mammals, findings in this insect model are predictably transferable to mammals, including humans. In the locust, model SD-like events were triggered in the CNS by injecting small volumes of saline containing high levels of potassium ions (KCl at 150 mM instead of the nominal resting level of 10 mM) into the metathoracic ganglion. Potassium-sensitive microelectrodes were used to measure SD generated by KCl injections, while manipulating the PKG pathway.
This tissue response is characterised by a transient surge and subsequent clearance of potassium ions in the extracellular space ([K^+]o). During SD-like events ventilatory motor activity ceases. This was monitored using an electromyographic electrode positioned on an abdominal muscle used for ventilation (Ventilatory EMG). Upon restoration of the potassium ion gradient the neural activity recovered and preparations began to ventilate again.
The first injection was used as a control. Following the first injection, animals were allowed 10 minutes of perfusion with standard locust saline before treatment with bath applications of selected drugs (i.e. KT5823, T-0156). All drugs were dissolved in a minimum amount of DMSO before further dilution with standard locust saline to a concentration of 10^−5M and were superfused over the metathoracic ganglion for 10 minutes before the second injection. A total of 20 minutes elapsed between the first and second injection in all experiments. As shown in Figure (Bi), duration at half the maximum amplitude was used to characterize the severity of SD-like events. A significant increase was observed following the second injection when compared to the first in control animals. […] Heat shock (HS) preconditioning reduced SD duration evoked by the first and second injections. […] Numbers in the histogram bars indicate number of preparations tested. Asterisks indicate statistically significant differences between the first and second injection ([…]).
Motor pattern activity was not measured for T-0156/Cantharidin treatments. […] Figure (Cii) illustrates the drug effects by showing the percentage difference in rhythm recovery time (second injection relative to first injection).
Single SD events were evoked by injection of saline (50 nL) containing elevated potassium chloride (150 mM vs. 10 mM) directly into the metathoracic ganglion. […] During SD, ventilatory motor activity monitored electromyographically (EMG) ceased and recovered upon restoration of the potassium ion gradient. The duration of the [K^+]o wave at half its maximal amplitude and the time from failure of motor patterning to the recovery of a ventilatory rhythm were measured. […] Numbers in brackets represent sample size.
As in Example 3, SD events were evoked by injection of saline (50 nL) containing elevated potassium chloride (150 mM vs. 10 mM) directly into the metathoracic ganglion of locust preparations.

| Structure (SMILES) | time to anoxic coma onset during acute hypoxia, single agents [2] | head PKG enzyme activity [5] | time to recover ventilatory central pattern generator (vCPG) function following SD [7] | also measured |
| --- | --- | --- | --- | --- |
| CC12C(=O)OC(=O)C1(C)C1CCC2O1 (centres unmarked) [Cantharidin, Hexahydro-3a,7a-dimethyl-4,7-epoxyisobenzofuran-1,3-dione] | demonstrated significant resilience to anoxic coma | PKG activity levels did not differ; also recorded: showed no significant effects on PKG enzyme activity levels compared to sham controls | – | SD-like events and neural function [1]: neuroprotection and reduces SD-like events thereby prolonging neural function; time until the animal knocks out during anoxia [3]: neuroprotection and prolonged behaviour when subject to anoxia; time until neural failure [4]: neuroprotection and prolonged neural function when subject to anoxia |
| COC(=O)[C@@H](N)CCCNC(=N)N[N+](=O)[O-] [LNAME, N(G)-nitro-L-arginine methyl ester] | – | – | dramatically reduced the length of time taken to recover ventilatory central pattern generator (vCPG) function following SD | DAF2-DA cell body fluorescence in response to heat stress [6]: prevented the increased fluorescence in response to heat stress |
| CC(=O)N[C@@H](C(=O)O)C(C)(C)SN=O [SNAP, S-nitroso-N-acetyl-D-penicillamine] | – | – | did not exacerbate recovery times beyond that of control preparation times | – |
| N[C@@H](CCC(=O)N[C@@H](CSN=O)C(=O)NCC(=O)O)C(=O)O [SNOG, S-nitrosoglutathione] | – | – | did not exacerbate recovery times beyond that of control preparation times | – |
| COC(=O)c1c(-c2cc(OC)c(OC)c(OC)c2)c2ccnc(OCc3ncccn3)c2c(=O)n1Cc1ccnc(C)c1 [T-0156] | exhibited significant sensitivity to anoxic coma | significant increase in PKG activity levels compared with sitter control shams; also recorded: demonstrated significant effects compared to that of the sham control | – | length of time to recover ventilatory motor pattern activity after SD ([7]; Example 1, bath application 10^-5 M for 10 minutes before second KCl injection): took significantly longer to recover motor pattern activity after the second injection; recovery time of ventilatory rhythm, second event versus first ([7]; Example 3, drug applied for 10 minutes prior to second injection, FIG. 3D): The recovery time was increased; time to anoxic coma onset during acute hypoxia, single agents ([2]; listed as T0156): increased sensitivity to acute hypoxia |
